From patent EP4810052A2, “HCRHR2 SELECTIVE POLYPEPTIDES” (Gubra A/S, priority 2023, dated 2026)
Where two headings read alike, the source gives them in different places. Marks after values point to notes of the source that are not given here. Starred links: 1 amine or outer side, 2 acyl side, 3 side chain; linkers in the order of their positions; H or OH if unused. Non-standard residues stand in square brackets, D forms with d. Residues, ends and D or L forms follow the SMILES beside them. Groups on a side chain read outwards from the residue. *: point of attachment. C20 diacid = O=C(O)CCCCCCCCCCCCCCCCCCC(=O)*; γGlu = O=C(O)[C@H](CCC(=O)[*:2])N[*:1]; NMeI = CC[C@H](C)[C@H](NC)C(=O)O; Nle = CCCC[C@H](N)C(=O)O; AEEA = NCCOCCOCC(=O)O; Aib = CC(C)(N)C(=O)O

Experiments:
[1] = Effect on acute food intake in mice; assay type: in vivo; settings: single subcutaneous dose
Description: Male NMRI mice were obtained from JanVier (JanVier Labs, France) at 5 weeks of age. The animals were group-housed 4 mice pr. cage under a 12/12 h dark-light cycle, light off at 1 PM. Room temperature was controlled to 22°C ± 1°C, with 60 % ± 20% humidity. Animals had ad libitum access to regular rodent chow (Altromin 1324, Brogaarden, Denmark) and tap water.
Animals were transferred 5-7 days before the start of the study to a real-time food intake monitoring system, HM-2 system (MBRose, Denmark) to allow acclimatization to experimental conditions. As the animals were uniquely identified with microchips, each individual animal was identified by its microchip upon entry and exit from the food channel. Randomization of the mice for each study group (n=7-8) was based on body weight measured the day before the start of the study. A vehicle-treated group was included in each experiment. Six hours before the start of the dark phase, animals were fasted. One hour before the dark phase, animals were dosed once subcutaneously with test peptide. Food intake was reported hourly for a period of 72 hours. The percentage of food intake reduction was normalized to average food intake from the vehicle group. Statistical significance was evaluated using One-way analysis of variance with Dunnett's multiple comparison test. P < 0.05 was considered statistically significant.
Selected compounds were tested according to the general procedure on acute food intake in mice to determine the effect of a single subcutaneous dose on food intake in mice over 3 days.

PK in rats = assay type: in vivo; parameters: T½ / MRT: unit not given here; settings: for MRT / T½ / clearance / half-life / Cmax / Tmax: Rat; for clearance / half-life / Cmax / Tmax / bioavailability: male, in vivo; for clearance / half-life / Cmax / Tmax: Sprague Dawley (RJHan:SD); for half-life: read-out: T½ (converted); for bioavailability: Sprague Dawley, rat
Summary of the method: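 Lean male Sprague Dawley rats (n = 3 per group) got a two-peptide combination at 50 nmol/kg IV and SC. Plasma was sampled from 0.17 to 96 h post dose and analysed by LC-MSMS. PK parameters came from non-compartmental analysis.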

hCRHR2 = biological target: T1, hCRHR2 (Homo sapiens, UniProt Q13324); assay: HTRF cAMP assay, determination of hCRHR2 potency (peptide libraries 5 conc., purified peptides 11 conc.); assay type: cell-based
T1 sequence (Q13324 1-411): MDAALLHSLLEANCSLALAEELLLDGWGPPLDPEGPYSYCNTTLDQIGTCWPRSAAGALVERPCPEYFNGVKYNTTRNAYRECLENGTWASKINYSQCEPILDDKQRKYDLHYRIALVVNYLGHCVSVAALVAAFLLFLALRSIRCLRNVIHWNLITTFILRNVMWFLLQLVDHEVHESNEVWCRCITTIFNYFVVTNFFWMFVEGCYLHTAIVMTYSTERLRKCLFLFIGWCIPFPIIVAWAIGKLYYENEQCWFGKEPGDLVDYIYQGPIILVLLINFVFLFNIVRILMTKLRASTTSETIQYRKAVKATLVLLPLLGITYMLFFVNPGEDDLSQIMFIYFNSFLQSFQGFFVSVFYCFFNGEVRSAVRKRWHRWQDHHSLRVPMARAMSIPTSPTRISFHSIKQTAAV
Summary of the method: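 CHO-K1 cells stably expressing human CRHR2, thawed from frozen stocks just before use and run in suspension; cAMP measured by competitive HTRF immunoassay (cryptate anti-cAMP, d2-cAMP). Agonist peptides tested at 5 (libraries) or 11 (purified) concentrations; EC50 from sigmoid variable-slope nonlinear regression.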

[2] = Thioflavin T fibril formation assay of purified peptides; assay type: physicochemical; parameters: key: Amyloid fibril formation detected by an increase in ThT fluorescence was denoted with "Yes"; samples without increasing ThT fluorescence hence not forming amyloid fibrils were denoted "No"; settings: for Amyloid fibril formation + semaglutide (Ozempic®), pH 7.4: 200 µM compound dissolved in semaglutide drug product, listed as None = drug product alone; for Amyloid fibril formation pH 7.0 / Amyloid fibril formation pH 7.5 / Amyloid fibril formation pH 8.0: 200 µM in 50 mM phosphate buffer
Summary of the method: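 Compounds at 200 µM in 50 mM phosphate buffer at the stated pH values, or at 200 µM in semaglutide drug product adjusted to pH 7.4, with 4 µM ThT final. Fibrillation followed as ThT fluorescence (ex 450/em 480 nm) over 96 h at 40°C, with 5 min shaking at 700 rpm alternating with 5 min rest; triplicates.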

Compound	% FI compared to vehicle, 24 h post-dosing ([1]; 30 nmol/kg)	% FI compared to vehicle, 24 h post-dosing ([1]; 100 nmol/kg)	% FI compared to vehicle, 24 h post-dosing ([1]; 300 nmol/kg)	MRT (PK in rats)	T½ (PK in rats)	clearance (PK in rats; iv, 50 nmol/kg i.v.) [mL/min/kg]	half-life (PK in rats; iv, 50 nmol/kg i.v.) [h]	Cmax (PK in rats; sc, 50 nmol/kg s.c.) [nM]	Tmax (PK in rats; sc, 50 nmol/kg s.c.) [h]	half-life (PK in rats; sc, 50 nmol/kg s.c.) [h]	bioavailability (PK in rats; sc) [%]	Amyloid fibril formation + semaglutide (Ozempic®), pH 7.4 [2]	Amyloid fibril formation pH 7.0 [2]	Amyloid fibril formation pH 7.5 ([2]; pH 7.5)	Amyloid fibril formation pH 8.0 [2]	Solubility pH 6.5 (mg/ml)	Solubility pH 7.0 (mg/mL)	Solubility pH 7.5 (mg/mL) (pH 7.5)	Solubility pH 7.5 + phenol (mg/mL) (pH 7.5)	further results
CC[C@H](C)[C@H](NC)C(=O)N[C@H](C(=O)N[C@@H](CC(C)C)C(=O)N[C@@H](CO)C(=O)N[C@@H](CC(C)C)C(=O)N[C@@H](CC(=O)O)C(=O)N[C@H](C(=O)N1CCC[C@H]1C(=O)N[C@H](C(=O)NCC(=O)N[C@@H](CC(C)C)C(=O)N[C@@H](CC(C)C)C(=O)N[C@@H](CCC(N)=O)C(=O)N[C@H](C(=O)N[C@@H](CC(C)C)C(=O)N[C@@H](CC(C)C)C(=O)N[C@@H](CCC(=O)O)C(=O)N[C@@H](CCC(N)=O)C(=O)N[C@@H](C)C(=O)N[C@@H](CCCNC(=N)N)C(=O)N[C@@H](C)C(=O)N[C@@H](CCCNC(=N)N)C(=O)N[C@@H](C)C(=O)N[C@@H](C)C(=O)N[C@@H](CCCNC(=N)N)C(=O)N[C@@H](CCC(=O)O)C(=O)N[C@@H](CCC(N)=O)C(=O)N[C@@H](C)C(=O)N[C@H](C(=O)N[C@@H](CCCCNC(=O)COCCOCCNC(=O)COCCOCCNC(=O)CC[C@H](NC(=O)CC[C@H](NC(=O)CCCCCCCCCCCCCCCCCCC(=O)O)C(=O)O)C(=O)O)C(=O)N[C@@H](CC(N)=O)C(=O)N[C@@H](C)C(=O)N[C@@H](CCC(=O)O)C(=O)N[C@H](C(=O)N[C@@H](CC(C)C)C(=O)N[C@@H](C)C(=O)N[C@@H](CCC(=O)O)C(=O)N[C@H](C(N)=O)C(C)C)[C@@H](C)CC)[C@@H](C)O)[C@@H](C)CC)[C@@H](C)CC)C(C)C)C(C)C [SEQ ID NO: 6] (H-[NMeI]VLSLDVPIGLLQILLEQARARAAREQATK([AEEA-AEEA-γGlu-γGlu-C20 diacid])NAEILAEV-NH2)	51.61*** %	25.76*** %	12.69*** %	7.4	6.1	0.15	6.1	70	24	8.4	35	No	No	No	No	21.1	20.0	18.7	18.1	Selectivity ratio (hCRHR1/ hCRHR2) (hCRHR2; hCRHR1-EC50/hCRHR2-EC50): >1852; EC50 (hCRHR2; purified peptides, CHO-K1 cells stably expressing hCRHR2, cAMP HTRF, read-out: hCRHR2 EC50): 2.7 nM; EC50 (hCRHR2; stable cell system, Table 10, read-out: Stable EC50 (nM) hCRHR 2a): 3 nM; Fibrillation (pH 7.5) ([2]; pH 7.5, ThT assay): No
CCCC[C@H](NC(=O)[C@@H](NC(=O)[C@H](CCC(=O)O)NC(=O)C(C)(C)NC(=O)[C@H](CC(N)=O)NC(=O)[C@@H](NC(=O)[C@H](CCCCNC(=O)COCCOCCNC(=O)COCCOCCNC(=O)CC[C@H](NC(=O)CC[C@H](NC(=O)CCCCCCCCCCCCCCCCCCC(=O)O)C(=O)O)C(=O)O)NC(=O)[C@H](C)NC(=O)[C@H](CCC(N)=O)NC(=O)[C@H](CCC(=O)O)NC(=O)[C@H](CCCNC(=N)N)NC(=O)[C@H](C)NC(=O)[C@H](C)NC(=O)[C@H](CCCNC(=N)N)NC(=O)[C@H](C)NC(=O)[C@H](CCCNC(=N)N)NC(=O)[C@H](C)NC(=O)[C@H](CCC(N)=O)NC(=O)[C@H](CO)NC(=O)[C@H](CC(C)C)NC(=O)[C@H](CC(C)C)NC(=O)[C@@H](NC(=O)[C@H](CCC(N)=O)NC(=O)[C@H](CC(C)C)NC(=O)[C@H](CC(C)C)NC(=O)CNC(=O)[C@@H](NC(=O)[C@@H]1CCCN1C(=O)[C@@H](NC(=O)[C@H](CC(=O)O)NC(=O)[C@H](CC(C)C)NC(=O)[C@H](CO)NC(=O)[C@H](CC(C)C)NC(=O)[C@@H](NC(=O)[C@@H](NC)[C@@H](C)CC)C(C)C)C(C)C)[C@@H](C)CC)[C@@H](C)CC)[C@@H](C)O)[C@@H](C)CC)C(=O)N[C@@H](C)C(=O)N[C@@H](CCC(=O)O)C(=O)N[C@H](C(N)=O)C(C)C [SEQ ID NO: 215] (H-[NMeI]VLSLDVPIGLLQILLSQARARAAREQAK([AEEA-AEEA-γGlu-γGlu-C20 diacid])TN[Aib]EI[Nle]AEV-NH2)	38.67*** %	20.26*** %	10.31*** %	6.7	5.7	0.2	5.7	42	24	6.1	28	No	No	No	No	19.6	20.6	17.7	18.0	EC50 (hCRHR2; Table 4, library peptides having X^38 = Nle, read-out: hCRHR2 pEC50 (converted)): 0.0251 nM; Selectivity ratio (hCRHR1/ hCRHR2) (hCRHR2; Table 5): >5747; EC50 (hCRHR2; Table 5, purified peptides, read-out: hCRHR2 EC50): 0.87 nM; Fibrillation (pH 7.5) ([2]; pH 7.5): No; Solubility pH 7.5, target conc. =10 mg/mL (measured mg/mL) (pH 7.5): 12 mg/mL
